The text below walks through data of PubChem BioAssay (NCI).

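How tested: cells in 96-well plates exposed to compound for 48 hours at five concentrations. At the GI50, growth is halved. TGI marks complete inhibition of growth.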 Some results are limits rather than exact numbers.

Some test systems named below: COLO 205 colon; HCC-2998 colon; MCF7 breast; MDA-MB-231 breast; NCI-H23 lung; NCI/ADR-RES ovarian; PC-3 prostate; SF-295 CNS; SK-MEL-2 melanoma; SW-620 colon.
Holding throughout (assay): NCI tumour cell line growth inhibition, 48 h

Take `CCCCCC(=O)Oc1ccc(/C(=C(\C)c2ccc(OC)cc2)c2ccc(OCCN3CCCCC3)cc2)cc1`: the GI50 was 2.02 µM in the assay with COLO 205 colon; 12.5 µM in the assay on HCC-2998 colon; 0.726 µM with MCF7 breast; 9.32 µM with MDA-MB-231 breast; 10.1 µM with NCI-H23 lung; 11 µM in the assay on NCI/ADR-RES ovarian. Also, the GI50 is 5.65 µM in the assay with PC-3 prostate, 2.28 µM in the assay with SF-295 CNS, 10.5 µM with SK-MEL-2 melanoma and 3.59 µM in the assay on SW-620 colon. Further, the TGI with COLO 205 colon was determined as 4.55 µM; in the assay on HCC-2998 colon, 25.5 µM; with MCF7 breast, 14.4 µM; in the assay with MDA-MB-231 breast it was 21.9 µM; in the assay with NCI-H23 lung, 23.8 µM; with NCI/ADR-RES ovarian, 26.1 µM. Also, the TGI in the assay on PC-3 prostate stood at 18.7 µM; in the assay on SF-295 CNS, 6.32 µM; with SK-MEL-2 melanoma, 23.8 µM; in the assay on SW-620 colon, 14 µM.
For `COc1ccc(NC2=C(Br)C(=O)C(C)=C(C)C2=O)cc1`, the GI50 in the assay on COLO 205 colon is 21.3 µM; with HCC-2998 colon it was 12.4 µM; in the assay on MCF7 breast it was 1.78 µM; with MDA-MB-231 breast, 1.88 µM; in the assay with NCI-H23 lung it was 4.41 µM; with NCI/ADR-RES ovarian, 2.04 µM. The GI50 in the assay on PC-3 prostate is 2.78 µM; with SF-295 CNS it was 13.8 µM; with SK-MEL-2 melanoma, 11.4 µM; in the assay with SW-620 colon it was 2.07 µM. Also, the TGI amounted to 51 µM in the assay with COLO 205 colon; 26.5 µM in the assay on HCC-2998 colon; 3.77 µM in the assay with MCF7 breast; 3.96 µM in the assay on MDA-MB-231 breast; 23.7 µM in the assay on NCI-H23 lung; 4.65 µM with NCI/ADR-RES ovarian. The TGI in the assay on PC-3 prostate came out at 9.05 µM; with SF-295 CNS, 27 µM; in the assay on SK-MEL-2 melanoma, 28.3 µM; in the assay on SW-620 colon it was 4.54 µM.
`C=CCOc1c(Br)cc(Br)cc1Br`: the GI50 with COLO 205 colon is 22.2 µM; in the assay with HCC-2998 colon, 46.4 µM; with MCF7 breast, 9.32 µM; in the assay on MDA-MB-231 breast, 6.7 µM; in the assay on NCI-H23 lung, 10.1 µM; in the assay with NCI/ADR-RES ovarian, 17.3 µM. Moreover, the GI50 in the assay on PC-3 prostate was 68 µM; in the assay on SF-295 CNS it was 2.71 µM; in the assay with SK-MEL-2 melanoma, above 100 µM; in the assay with SW-620 colon it was 22.6 µM. Besides, the TGI in the assay on COLO 205 colon is 56.9 µM; in the assay on HCC-2998 colon it was above 100 µM; with MCF7 breast, above 100 µM; with MDA-MB-231 breast it was above 100 µM; with NCI-H23 lung, above 100 µM; in the assay on NCI/ADR-RES ovarian, above 100 µM. Also, the TGI is above 100 µM in the assay with PC-3 prostate, 9.53 µM in the assay with SF-295 CNS, above 100 µM with SK-MEL-2 melanoma and 89.4 µM in the assay on SW-620 colon.
Consider `Oc1ccc(Cc2ccccc2)c2cccnc12`, for which the GI50 in the assay with COLO 205 colon is 7.74 µM; in the assay on HCC-2998 colon, 3.65 µM; with MCF7 breast it was 7.46 µM; with MDA-MB-231 breast it was 4.36 µM; in the assay with NCI-H23 lung it was 2.9 µM; in the assay on NCI/ADR-RES ovarian, 0.49 µM. Also, the GI50 is 2.7 µM in the assay with PC-3 prostate, 1.34 µM in the assay with SF-295 CNS, 12.7 µM in the assay with SK-MEL-2 melanoma and 3.39 µM in the assay on SW-620 colon. Also, the TGI was above 100 µM in the assay on COLO 205 colon; 16.6 µM with HCC-2998 colon; above 100 µM in the assay on MCF7 breast; 27.4 µM in the assay on MDA-MB-231 breast; 57.1 µM with NCI-H23 lung; 13.3 µM in the assay on NCI/ADR-RES ovarian. Moreover, the TGI was found to be 67.4 µM in the assay with PC-3 prostate, 20.5 µM in the assay on SF-295 CNS, 70.6 µM with SK-MEL-2 melanoma and 54.8 µM with SW-620 colon.
Turning to `O=C(N/N=C/c1ccc(Cl)cc1Cl)c1ccccc1Nc1cccc(C(F)(F)F)c1`, the GI50 was 2.73 µM with COLO 205 colon; 8.52 µM in the assay on HCC-2998 colon; 11.3 µM with MCF7 breast; 4.79 µM in the assay with MDA-MB-231 breast; 5.93 µM with NCI-H23 lung; 5.97 µM in the assay with NCI/ADR-RES ovarian. Besides, the GI50 is 2.4 µM in the assay on PC-3 prostate, 2.55 µM in the assay on SF-295 CNS, 2.76 µM in the assay on SK-MEL-2 melanoma and 8.63 µM in the assay on SW-620 colon. Also, the TGI in the assay on COLO 205 colon was 9.37 µM; in the assay on HCC-2998 colon, above 100 µM; in the assay on MCF7 breast it was above 100 µM; in the assay on MDA-MB-231 breast, 32.2 µM; with NCI-H23 lung, 32.8 µM; with NCI/ADR-RES ovarian, 36.7 µM. Besides, the TGI in the assay with PC-3 prostate is 8.82 µM; in the assay with SF-295 CNS, 8.8 µM; with SK-MEL-2 melanoma, 10.7 µM; in the assay with SW-620 colon, above 100 µM.
As to `CNc1nc(NC2CCCC2)nc(Sc2ccc(OC)cc2)n1`, the GI50 with COLO 205 colon, with HCC-2998 colon, in the assay on MCF7 breast, with MDA-MB-231 breast, in the assay on NCI-H23 lung and in the assay on NCI/ADR-RES ovarian was above 10 µM each time. The GI50 in the assay with PC-3 prostate, in the assay on SF-295 CNS, with SK-MEL-2 melanoma and in the assay on SW-620 colon was above 10 µM each time. Further, the TGI in the assay with COLO 205 colon, with HCC-2998 colon, with MCF7 breast, with MDA-MB-231 breast, in the assay on NCI-H23 lung and in the assay on NCI/ADR-RES ovarian was above 10 µM throughout. For the same molecule, the TGI in the assay on PC-3 prostate, with SF-295 CNS, in the assay with SK-MEL-2 melanoma and in the assay on SW-620 colon was above 10 µM in each case.
Regarding `Cc1noc(C)c1-c1ccc2[nH]c(=O)n3c2c1OC[C@@H]3c1ccccn1`, the GI50 was 0.433 µM in the assay on COLO 205 colon; 2 µM in the assay with HCC-2998 colon; 0.329 µM in the assay on MCF7 breast; 0.868 µM with MDA-MB-231 breast; 9.44 µM in the assay on NCI-H23 lung; 2.33 µM with NCI/ADR-RES ovarian. The GI50 in the assay on PC-3 prostate was 2.88 µM; with SF-295 CNS it was 1.84 µM; in the assay on SK-MEL-2 melanoma, above 89.5 µM; with SW-620 colon, above 100 µM. The TGI in the assay on COLO 205 colon, in the assay with HCC-2998 colon, in the assay with MCF7 breast, with MDA-MB-231 breast, in the assay with NCI-H23 lung and in the assay on NCI/ADR-RES ovarian was above 100 µM throughout. For the same molecule, the TGI in the assay with PC-3 prostate, in the assay on SF-295 CNS, in the assay with SK-MEL-2 melanoma and in the assay on SW-620 colon was above 100 µM in each case.
For `COc1ccccc1C(=O)c1ccc2ccccc2c1`, the TGI was 61.5 µM in the assay on COLO 205 colon; above 100 µM in the assay with HCC-2998 colon; above 100 µM in the assay with MCF7 breast; above 100 µM in the assay on MDA-MB-231 breast; above 100 µM with NCI-H23 lung; above 100 µM with NCI/ADR-RES ovarian. The TGI was above 100 µM with PC-3 prostate, 79.8 µM in the assay on SF-295 CNS, 37.5 µM in the assay on SK-MEL-2 melanoma and 75.2 µM in the assay on SW-620 colon.
